These results are taken from US8114989B2, “Pyrazolylaminopyrimidine derivatives useful as tyrosine kinase inhibitors” (AstraZeneca AB, priority 2005, dated 2012).

SMILES strings stand for the structures.

This assay concerns the target T1, human Trk A kinase (Homo sapiens, UniProt P04629).
T1 construct: HIS; made in house; host or cells: SF9 insect cells
Kind of assay: Trk A Assay (Alphascreen kinase assay). Particulars: 70 μM ATP, PolyEY-biotin substrate, 20 minutes, room temperature, read-out: Trk inhibitory activity IC50. The class given is biochemical. The method, then:
After incubation of the kinase with a biotinylated substrate and adenosine triphosphate (ATP) for 20 minutes at room temperature, the kinase reaction was stopped by the addition of 30 mM ethylenediaminetetraacetic acid (EDTA). The reaction was performed in 384 well microtitre plates and the reaction products were detected with the addition of strepavidin coated Donor Beads and phosphotyrosine-specific antibodies coated Acceptor Beads using the EnVision Multilabel Plate Reader after an overnight incubation at room temperature.

T1 sequence (P04629 442-796): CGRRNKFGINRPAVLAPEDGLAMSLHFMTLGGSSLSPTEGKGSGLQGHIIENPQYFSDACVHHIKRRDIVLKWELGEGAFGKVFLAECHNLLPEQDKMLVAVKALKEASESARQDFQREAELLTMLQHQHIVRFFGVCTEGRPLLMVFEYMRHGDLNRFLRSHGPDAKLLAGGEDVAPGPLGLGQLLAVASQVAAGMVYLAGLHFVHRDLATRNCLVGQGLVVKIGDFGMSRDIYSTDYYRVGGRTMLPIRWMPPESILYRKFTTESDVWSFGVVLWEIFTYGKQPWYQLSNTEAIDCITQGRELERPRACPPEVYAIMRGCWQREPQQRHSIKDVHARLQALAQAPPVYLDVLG

For the compound `C[C@H](Nc1ncc(F)c(Nc2cc(C3CC3)[nH]n2)n1)c1ccc(F)cn1` [Example 3, (S)-5-Fluoro-N^1-(5-cyclopropyl-1H-pyrazol-3-yl)-N^2-(1-(5-fluoropyridin-2-yl)ethyl)pyrimidine-2,4-diamine], the IC50 came out at 10 nM.
